From US7314864B1, “Humanin, a polypeptide suppressing neuronal death” (Keio University, priority 1999, dated 2008)
“Also recorded” adds a separate entry of the source. No end group written: not given here.

Experiments:
[1] = system: F11 cells transfected with V642I APP cDNA; experiment: V642I APP-induced F11 cell death, trypan blue exclusion assay; assay type: cell-based; details: for cell mortality (%): V642I APP cDNA, treated with 10 μM sHN polypeptides, mean ±S.D.
Method: (§1) F11 cells (Platika, D. et al. (1985) Proc. Natl. Acad. Sci. U.S.A. 82, 3499-3503; Yamatsuji, T. et al. (1996) Science 272, 1349-1352) were cultured in HamF-12 media containing 18% fetal bovine serum (FBS) and antibiotics. 7×10^4/well of F11 cells were seeded into a 6-well plate; cultured in HamF-12 containing 18% FBS for 12 to 16 hours; transfected 3 hours with plasmids encoding FAD genes and plasmids encoding HN (pHN, and such) by lipofection in the absence of serum (1 μg of FAD cDNA expression plasmid, 1 μg of HN cDNA expression plasmid, 4 μl of LipofectAMINE, 8 μl of Plus reagent); and then, were cultured for 2 hours in HamF-12 media containing 18% FBS. Then, culture media were exchanged with HamF-12 media containing 10% FBS; and the cells were cultured for additional 67 hours. 72 hours after transfection, cell death was measured by trypan blue exclusion assay. Experiments using synthetic HN polypeptides were conducted as follows: F11 cells (at 7×10^4/well in a 6-well plate) were transfected 3 hours with FAD genes in the absence of serum, as mentioned above; after cultivation for 2 hours in HamF-12 media containing 18% FBS, the cells were cultured for 67 hours in HamF-12 media containing 10% FBS with various concentrations of HN polypeptides; and cell death was measured by trypan blue exclusion assay. ALS-associated mutant cDNAs of SOD1 were also similarly transfected, and examined for their neurotoxicity.
(§2) Trypan blue exclusion assay was performed as follows. Without prewashing, the cells were suspended with gentle pipetting into a serum-free media. 50 μl of 0.4% trypan blue solution (Sigma, Cat. #T-8154) were added (final concentration of 0.08%) to 200 μl cell suspension, and the suspension was mixed at room temperature. Within 3 minutes of the trypan blue solution addition, stained cells were counted. Cell mortality was determined [100-cell survival rate (%)] based on the stained cell count. LDH assay was performed using a kit (LDH-Cytotoxic Test; Wako Pure Chemical Industries, Cat. #299-50601) by sampling 6 μl of media in which neurons were cultured. Calcein staining was performed as described in literature (Bozyczko-Coyne, D. et al. (1993) Journal of Neuroscience Methods 50, 205-216). Specifically, 6 μM Calcein-AM (3′, 6′-Di-(O-acetyl)-2′-7′-bis[N,N-bis(carboxymethyl)aminomethyl]fluorescein, tetraacetoxymethyl ester; Dojindo, Cat. #349-07201) was added to the neurons; and 30 minutes or longer after Calcein-AM treatment, fluorescence (ex=490 nm, em=515 nm) was observed by fluorescence microscopy, and measured by a spectrometer. Specific fluorescence was calculated by subtracting basal fluorescence from total fluorescence. Basal fluorescence was assigned to be the value calculated from linear trypan blue positivity-fluorescence intensity relationship, corresponding to 100% trypan blue positivity.

[2] = system: primary cultured cortical neurons treated with Aβ1-43; experiment: Aβ1-43-induced cell death of primary cultured cortical neurons, trypan blue exclusion assay; assay type: cell-based; details: for effect on Aβ1-43-induced cell death: 25 μM Aβ1-43, confirmed by LDH release and Calcein staining; for cell mortality: mean ±S.D.
Method: Primary culture of mouse cortical neurons was performed in poly-D-lysine-coated 24-well plates (Sumitomo Bakelite) in the absence of serum and in the presence of N2 supplement, as described in literature (Ecksioglu, Y. Z. et al. (1994) Brain Res. 644, 282-90). The purity of neurons prepared according to the method was >98%. The prepared neurons (1.25×10^5/well, 250 μl media/well) were preincubated in the absence or presence of 10 nM or 10 μM sHN polypeptides for 16 hours; and were treated with 25 μM Aβ1-43 in the absence or presence of sHN polypeptides at the same concentrations for 24 to 72 hours. Since primary cultured neurons are damaged even by temporary dryness during medium exchange, treatment of the cells by Aβ1-43 was performed as follows. First, half of the volume of the old medium (125 μl) was discarded. Then, 125 μl of pre-warmed fresh medium containing 50 μM Aβ1-43 and sHN with a concentration indicated above were added to the culture.
as §2

[3] = system: F11 cells transfected with FAD genes (V642I APP, NL-APP, M146L PS-1, N141I PS-2); experiment: FAD gene-induced F11 cell death, trypan blue exclusion assay; assay type: cell-based, rat/mouse hybrid; details: for suppression of FAD gene-induced cell death: 10 nM polypeptide; for neuroprotective activity relative to HNG: all types of cell death (FAD genes, Aβ); for concentration giving complete antagonism/rescue of neuronal death: all four types of FAD genes
Method: as §1, §2

[4] = system: F11 cells transfected with SOD1 mutants (A4T, G85R, G93A); experiment: ALS-associated SOD1 mutant-induced F11 cell death, trypan blue exclusion assay; assay type: cell-based, rat/mouse hybrid; details: 100 μM polypeptide
Method: as §1
Trypan blue exclusion assay was performed as follows. […] Within 3 minutes of the trypan blue solution addition, stained cells were counted. Cell mortality was determined [100-cell survival rate (%)] based on the stained cell count. […] Specifically, 6 μM Calcein-AM (3′, 6′-Di-(O-acetyl)-2′-7′-bis[N,N-bis(carboxymethyl)aminomethyl]fluorescein, tetraacetoxymethyl ester; Dojindo, Cat. #349-07201) was added to the neurons; and 30 minutes or longer after Calcein-AM treatment, fluorescence (ex=490 nm, em=515 nm) was observed by fluorescence microscopy, and measured by a spectrometer. Specific fluorescence was calculated by subtracting basal fluorescence from total fluorescence. […]

[5] = system: F11/EcR cells transfected with ecdysone-inducible Q79 plasmid; experiment: Polyglutamine Q79-induced F11/EcR cell death (ecdysone-inducible), trypan blue exclusion assay; assay type: cell-based; details: 1 μM polypeptide, 72 hours
Method: F11/EcR cell experiment using ecdysone was conducted as follows: F11/EcR cells were seeded at 7×10^4/well into a 6-well plate; cultured for 12 to 16 hours in HamF-12 media containing 18% FBS; and were similarly transfected in the absence of serum for 3 hours with 1 μg of ecdysone-inducible plasmid alone, or with 1 μg of HN-encoding plasmid, as mentioned above. After culturing for 12 to 16 hours in HamF-12 media containing 18% FBS, the cells were cultured for 2 hours in HamF-12 media containing 10% FBS, then ecdysone (Ponasterone) was added to the media (final concentration of 40 μM). Cell death was measured 72 hours after ecdysone treatment. Experiments using synthetic HN polypeptides were conducted as follows: cells were similarly transfected for 3 hours with FAD genes in the absence of serum; cultured for 12 to 16 hours in HamF-12 media containing 18% FBS; cultured for 2 hours in HamF-12 media containing 10% FBS and various concentrations of HN polypeptide; and then, 40 μM Ponasterone was added to the media. Cell death was measured by trypan blue exclusion assay after 72 hours from the ecdysone treatment. HD/SCA-associated Q79 cDNAs were also similarly transfected, and the neurotoxicity was tested.
Trypan blue exclusion assay was performed as follows. […] Within 3 minutes of the trypan blue solution addition, stained cells were counted. Cell mortality was determined [100-cell survival rate (%)] based on the stained cell count. […] Specifically, 6 μM Calcein-AM (3′, 6′-Di-(O-acetyl)-2′-7′-bis[N,N-bis(carboxymethyl)aminomethyl]fluorescein, tetraacetoxymethyl ester; Dojindo, Cat. #349-07201) was added to the neurons; and 30 minutes or longer after Calcein-AM treatment, fluorescence (ex=490 nm, em=515 nm) was observed by fluorescence microscopy, and measured by a spectrometer. Specific fluorescence was calculated by subtracting basal fluorescence from total fluorescence. Basal fluorescence was assigned to be the value calculated from linear trypan blue positivity-fluorescence intensity relationship, corresponding to 100% trypan blue positivity.

[6] = 25 μM Aβ1-43, 72 hours, 10 nM polypeptide

SEQ ID NO: 48: HNG with Cys at position 8 substituted with Lys (MAPRGFSKLLLLTGEIDLPVKRRA)
suppression of V642I APP-induced cell death ([1]; 10 nM polypeptide): significant suppression activity | effect on Aβ1-43-induced cell death ([2]; 10 nM polypeptide): suppressed cell death | suppression of FAD gene-induced cell death [3]: inhibited neuronal death | neuroprotective activity relative to HNG [3]: comparable to the original HNG polypeptide

HN-17: 17 amino acids from Pro3 to Pro19 of Humanin (PRGFSCLLLLTSEIDLP; artificially synthesized sequence (deltaN2 deltaC5-Humanin; HN-17 ))
antagonizing activity on FAD gene-induced cell death ([3]; 10 μM polypeptide, four FAD genes): sufficient antagonizing activity | activity to suppress cell death compared to the original HN ([3]; M146L PS-1): slightly lower activity | concentration showing sufficient protective action ([3]; any of the four FAD genes, dose-response): low μM

MAPRGFSCRLLLTSEIDLPVKRRA [sHNR]
cell mortality (%) ([1]; 72 hours): 17.7 ± 2.2 %

SEQ ID NO: 46: HNG with Cys at position 8 substituted with His (MAPRGFSHLLLLTGEIDLPVKRRA)
suppression of V642I APP-induced cell death ([1]; 10 nM polypeptide): significant suppression activity | effect on Aβ1-43-induced cell death ([2]; 10 nM polypeptide): suppressed cell death | suppression of FAD gene-induced cell death [3]: inhibited neuronal death | neuroprotective activity relative to HNG [3]: slight decrease in the cell death suppression activity

PRGFSCLLLLTGEIDLP [HNG-17]
cell mortality [2, 6]: 28.8±2.3% | effect on Aβ1-43-induced cell death ([2]; 10 nM polypeptide): completely antagonize | suppression of FAD gene-induced cell death [3]: completely antagonize

MAPRGFSALLLLTSEIDLPVKRRA [sHNA]
effect on SOD1 mutant-induced cell death, synthetic polypeptide [4]: couldn't be suppressed | cell mortality (%) ([1]; 72 hours): 52.5 ± 3.0% | suppression of V642I APP-induced cell death ([1]; concentrations up to 100 μM): did not significantly suppress | effect on Aβ1-43-induced cell death ([2]; 10 μM polypeptide): did not show any effect | antagonism of cell death by FAD genes ([3]; NL-APP, M146L PS-1, N141I PS-2, up to 100 μM): did not antagonize | effect on Q79-induced cell death, synthetic polypeptide [5]: Extensive cell death

SEQ ID NO: 54: HNG with Cys at position 8 substituted with Arg (MAPRGFSRLLLLTGEIDLPVKRRA)
suppression of V642I APP-induced cell death ([1]; 10 nM polypeptide): significant suppression activity | effect on Aβ1-43-induced cell death ([2]; 10 nM polypeptide): suppressed cell death | suppression of FAD gene-induced cell death [3]: inhibited neuronal death | neuroprotective activity relative to HNG [3]: comparable to the original HNG polypeptide

ARGFSCLLLLTGEIDLP [SEQ ID NO: 25, ARGFSCLLLLTGEIDLP]
cell mortality [2, 6]: 75.3±4.4%

AGA-HNG: HNG (S14G HN) mutated at two positions, R4A/F6A (MAPAGASCLLLLTGEIDLPVKRRA; artificially synthesized sequence (AGA-HN))
concentration giving complete rescue of cell death by Aβ ([2]; 25 μM Aβ1-43, 72 hours): 0.3 nM | concentration showing significant or sufficient neuroprotective action [3]: about 1 nM | concentration giving complete antagonism/rescue of neuronal death [3]: 0.1 nM | neuroprotective activity relative to HNG [3]: higher rescue activity compared to HNG; also recorded: several folds higher

MAPRGFSCLLLLTGEIDLPVKRRA [sHNG]
effect on SOD1 mutant-induced cell death, synthetic polypeptide [4]: couldn't be suppressed | IC50 ([1]; 72 h): ~0.1 nM | concentration giving complete antagonizing effect on V642I APP-induced cell death ([1]; synthetic polypeptide, 72 hours): ≤ 10 nM | effect on Aβ1-43-induced cell death ([2]; 10 nM polypeptide): completely protected | concentration showing significant or sufficient neuroprotective action [3]: about 1 nM | concentration giving complete suppression of cell death ([3]; NL-APP, M146L PS-1, N141I PS-2): ≤ 10 nM | concentration giving complete antagonism/rescue of neuronal death [3]: ≤ 10 nM | effect on Q79-induced cell death, synthetic polypeptide [5]: Extensive cell death
